In one assay the target is T1, AHK3 (Arabidopsis thaliana, UniProt Q9C5U1).
T1 sequence (Q9C5U1 1-1036): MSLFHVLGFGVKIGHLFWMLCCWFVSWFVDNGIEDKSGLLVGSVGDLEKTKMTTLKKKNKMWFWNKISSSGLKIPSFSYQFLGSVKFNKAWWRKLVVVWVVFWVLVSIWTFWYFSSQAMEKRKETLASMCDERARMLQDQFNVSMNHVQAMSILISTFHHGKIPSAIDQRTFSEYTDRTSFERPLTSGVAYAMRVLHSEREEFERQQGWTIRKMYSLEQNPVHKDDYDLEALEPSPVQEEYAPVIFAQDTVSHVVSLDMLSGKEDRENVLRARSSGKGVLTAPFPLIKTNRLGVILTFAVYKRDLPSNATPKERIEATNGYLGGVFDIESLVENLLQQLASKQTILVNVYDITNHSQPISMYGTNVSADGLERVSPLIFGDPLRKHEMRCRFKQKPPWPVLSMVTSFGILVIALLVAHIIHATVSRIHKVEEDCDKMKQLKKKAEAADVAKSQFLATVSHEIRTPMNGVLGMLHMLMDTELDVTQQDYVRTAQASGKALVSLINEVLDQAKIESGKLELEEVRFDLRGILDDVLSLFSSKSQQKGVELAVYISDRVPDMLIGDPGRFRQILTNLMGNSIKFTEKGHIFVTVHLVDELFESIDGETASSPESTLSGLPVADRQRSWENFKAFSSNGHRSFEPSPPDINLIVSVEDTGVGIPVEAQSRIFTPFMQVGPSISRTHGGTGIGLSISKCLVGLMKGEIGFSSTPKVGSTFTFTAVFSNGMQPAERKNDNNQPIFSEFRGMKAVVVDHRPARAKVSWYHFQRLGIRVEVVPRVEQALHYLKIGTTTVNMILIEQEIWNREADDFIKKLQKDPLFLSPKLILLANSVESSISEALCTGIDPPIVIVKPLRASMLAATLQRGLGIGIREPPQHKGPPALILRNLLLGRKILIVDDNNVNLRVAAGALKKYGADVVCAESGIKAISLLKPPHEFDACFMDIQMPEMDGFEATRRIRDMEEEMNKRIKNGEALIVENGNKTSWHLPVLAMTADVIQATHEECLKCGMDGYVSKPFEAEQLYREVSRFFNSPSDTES
As to the kind of experiment: Activation of cytokinin receptors (E. coli KMI001 beta-galactosidase reporter). It is filed as cell-based. Particulars: 28 h incubation; n.a. means no activation. The procedure:
(§1) Escherichia coli strains KMI001 harbouring the plasmid […]4 or […]3 were grown overnight at 25° C. in M9 media enriched with 0.1% casamino acids to OD600 1. The preculture was diluted 1:600 in 1 ml M9 medium containing 0.1% casamino acids and 1 μl stock solution of either the tested compound (10^-7 M-5×10^-5 M) or solvent control (DMSO, ethanol, methanol) were added. The cultures were further grown at 25° C. in microtiter plate, 200 μl per well. […] The cultures were centrifuged and 50 μl aliquots of the supernatant were transferred to microtiter plate containing 2 μl 150 mM 4-methyl umbelliferyl galactoside which was subsequently incubated for 1 h at 37° C. The reaction was stopped by adding 100 μl 0.2 M Na2CO3. […] The EC50 value, the compound concentration activating the receptor to 50%, was calculated from the obtained dose response curves. The values shown in Table 10 are means of three replicates and the entire test was repeated at least twice.

The target of a further assay is CRE1/AHK4 (Arabidopsis thaliana, UniProt Q9C5U0). The description is as above. It is filed as cell-based. The note with it: 17 h incubation; n.a. means no activation. As to the method: as §1
The subject of assay [1] is cytokinin-dependent tobacco callus Nicotiana tabacum L. cv. Wisconsin 38. As to the kind of experiment: Tobacco callus biotest (plant cell division). It is filed as cell-based. The note with it: at the concentration with highest activity, relative to 10^−5 M kinetin. As to the method:
The stimulatory effect of the newly prepared derivatives was tested in the calus biotest using cytokinin-dependent tobacco callus. Cytokinin-dependent tobacco callus Nicotiana tabacum L. cv. Wisconsin 38 was maintained at 25° C. in darkness on modified Murashige-Skoog medium, containing per 1 liter: 4 μmol of nicotinic acid, 2.4 μmol of pyridoxine hydrochloride, 1.2 μmol of thiamine, 26.6 μmol of glycine, 1.37 μmol of glutamine, 1.8 μmol of myo-inositol, 30 g of sucrose, 8 g of agar, 5.37 μmol of NAA and 0.5 μmol of 6-benzylaminopurine. Subcultivation was carried out every three weeks. Fourteen days before the bioassay, the callus tissue was transferred to the media without 6-benzylaminopurine. The biological activity was determined from the increase of the fresh callus weight after four weeks of cultivation. Five replicates were prepared for each concentration of the compound tested and the entire test was repeated twice. […] The compounds to be tested were dissolved in dimethylsulfoxide (DMSO) and the solution brought up to 10^−3 M with distilled water.
From the obtained data, the concentration with the highest activity was selected for each compound tested. Relative activity of the compound at this concentration was calculated (Table 11). The activity obtained for 10^−5 M of the control substance kinetin (K) was postulated as 100%.

For assay [2], the system named is Amaranthus caudatus cotyledon/hypocotyl explants. As to the kind of experiment: Amaranthus bioassay (betacyanin content). It is filed as cell-based, Amaranthus caudatus var. atropurpurea. Particulars: at the concentration with highest activity, relative to 10^−5 M kinetin. The procedure: The standard Amaranthus bioassay was performed with the following modifications. The seeds of Amaranthus caudatus var. atropurpurea were surface-sterilised in 10% (w/v) N-chlorobenzenesulfonamide for 10 min and washed 5 times with deionized water. They were placed in 15 cm Petri dishes containing paper tissues saturated with deionized water. After 72 h of cultivation at 25° C. in darkness, the roots of the seedlings were cut off. The explants, consisting of two cotyledons and hypocotyls, were placed in 5 cm Petri dishes onto two layers of filtration paper soaked with 1 ml of the incubation medium containing 10 μmol of Na2HPO4—KH2PO4, pH 6.8, 5 μmol of tyrosine and the compound to be tested. There were 20 explants per dish. The procedure was carried out under green safe light in a darkroom. After 48 h of incubation at 25° C. in darkness, betacyanin was extracted by freezing the explants in 4 ml 3.33 μM acetic acid. The concentration of betacyanin was determined from the absorbances at 537 nm and 620 nm as follows: ΔA=A537nm−A620nm. The values ΔA were plotted against the concentration tested, are means of five replicates and the entire test was repeated at least twice. […] The compounds to be tested were dissolved in dimethylsulfoxide (DMSO) and the solution brought up to 10^−3M with distilled water.
From the obtained data, the concentration with the highest activity was selected for each compound tested. Relative activity of the compound at this concentration was calculated (Tab. 12). The activity obtained for 10^−5 M kinetin (K) was postulated as 100%.

In the next assay the target is T2, recombinant AtCKX2 (Arabidopsis thaliana, UniProt Q9FUJ3).
T2 sequence (Q9FUJ3 23-501): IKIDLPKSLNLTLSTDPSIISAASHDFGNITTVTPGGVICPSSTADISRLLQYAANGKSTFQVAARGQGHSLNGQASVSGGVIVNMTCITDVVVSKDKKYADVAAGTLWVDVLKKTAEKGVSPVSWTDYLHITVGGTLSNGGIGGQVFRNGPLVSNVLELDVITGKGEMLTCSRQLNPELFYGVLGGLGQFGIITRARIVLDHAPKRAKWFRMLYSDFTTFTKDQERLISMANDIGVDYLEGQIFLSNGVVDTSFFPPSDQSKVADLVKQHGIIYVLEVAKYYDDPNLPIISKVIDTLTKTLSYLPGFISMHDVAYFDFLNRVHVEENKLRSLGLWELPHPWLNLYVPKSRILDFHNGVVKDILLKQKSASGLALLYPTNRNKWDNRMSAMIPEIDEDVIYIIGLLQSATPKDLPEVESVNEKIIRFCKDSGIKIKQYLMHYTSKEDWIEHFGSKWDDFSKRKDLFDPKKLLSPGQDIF
As to the kind of experiment: Inhibition of cytokinin oxidase/dehydrogenase activity (PMS/MTT microtitre plate assay). It is filed as biochemical. As to the method:
IC50 determinations were done using the assay in microtitre plate. Each well contained 100 μL of PMS/MTT [phenazine methosulfate/3-(4,5-dimethylthiazol-2-yl)-2,5-diphenyltetrazolium bromide] reaction mixture (final concentrations: 0.1 M KH2PO4, pH 7.4, 1 mM MTT, 0.2 mM PMS) containing the tested compound (3×10^−7 M-3×10^−4 M) and 30 μM N^6-isopentenyladenine (iP) as a substrate. 100 μL of cell-free growth medium of S. cerevisiae strain 23344c ura^− harboring the plasmid pYES2-AtCKX2 was directly used as a source of AtCKX2. Plates were incubated in the dark for […] at 37° C. and the enzymatic reaction was stopped by 25 μL of 35% acetic acid. The absorbance at 578 nm was measured using spectrophotometer Tecan. Absorbance of the sample without iP was subtracted.
The IC50 value, the compound concentration that inhibits the enzyme activity to 50%, was calculated from the obtained dose response curves. The values shown in Table 9 are means of three replicates and the entire test was repeated at least twice.
In general terms: Tetrazolium assays rely on reduction of a dye to a coloured formazan, in cell work by metabolically active cells.

The mark [3] stands for this setting: 30 μM iP as substrate, pH 7.4, 37° C., means of three replicates, read-out: IC50, inhibition of recombinant AtCKX2.

Consider 15 compounds from patent US8222260B2, “Substituted 6-anilinopurine derivatives as inhibitors of cytokinin oxidase/dehydrogenase and preparations containing these derivatives” (Univerzita Palackego V Olomouci, priority 2007, dated 2012).

Where two headings read alike, the source gives them in different places.

Chain of CRE1/AHK4 (Q9C5U0 whole entry): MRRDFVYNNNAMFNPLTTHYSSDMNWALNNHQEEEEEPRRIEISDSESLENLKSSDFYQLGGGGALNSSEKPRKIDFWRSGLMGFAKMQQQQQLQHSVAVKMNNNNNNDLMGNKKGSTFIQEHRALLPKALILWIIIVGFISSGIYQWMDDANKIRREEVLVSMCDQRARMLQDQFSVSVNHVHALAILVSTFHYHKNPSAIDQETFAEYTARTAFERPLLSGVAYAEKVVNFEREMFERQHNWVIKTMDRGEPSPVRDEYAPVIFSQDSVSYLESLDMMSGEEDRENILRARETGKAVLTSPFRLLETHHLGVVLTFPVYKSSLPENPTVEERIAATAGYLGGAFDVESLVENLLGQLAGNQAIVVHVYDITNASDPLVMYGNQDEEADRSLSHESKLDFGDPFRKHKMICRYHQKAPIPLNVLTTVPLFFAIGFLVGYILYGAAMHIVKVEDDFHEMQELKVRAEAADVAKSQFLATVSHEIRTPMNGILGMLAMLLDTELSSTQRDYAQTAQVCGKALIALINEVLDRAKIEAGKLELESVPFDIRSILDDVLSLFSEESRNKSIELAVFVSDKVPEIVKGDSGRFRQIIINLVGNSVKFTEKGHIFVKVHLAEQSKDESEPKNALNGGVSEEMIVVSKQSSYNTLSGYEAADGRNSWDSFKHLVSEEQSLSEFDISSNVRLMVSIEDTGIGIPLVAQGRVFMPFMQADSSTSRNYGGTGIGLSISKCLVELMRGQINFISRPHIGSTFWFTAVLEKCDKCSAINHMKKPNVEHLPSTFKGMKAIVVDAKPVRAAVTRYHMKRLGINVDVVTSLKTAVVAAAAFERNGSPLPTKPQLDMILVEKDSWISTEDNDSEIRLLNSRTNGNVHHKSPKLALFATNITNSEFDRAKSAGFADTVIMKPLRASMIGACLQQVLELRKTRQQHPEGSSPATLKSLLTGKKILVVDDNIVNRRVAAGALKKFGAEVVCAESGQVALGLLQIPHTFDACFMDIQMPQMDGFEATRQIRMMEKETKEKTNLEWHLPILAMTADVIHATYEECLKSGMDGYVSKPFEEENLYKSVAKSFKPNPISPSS

Broadly, the EC50 is the concentration at which the effect is half-maximal. Lower therefore signals greater potency. Consider `Cc1ccc(Nc2nc(Cl)nc3[nH]cnc23)cc1C` [Compound 30], for which the concentration giving a half-maximal response (EC50) was above 50 µM at AHK3 and 33.3 µM on CRE1/AHK4.

As to `Oc1ccccc1Nc1nc(F)nc2[nH]cnc12` [Compound 47], the EC50 is 45.8 µM on AHK3 and above 50 µM on CRE1/AHK4.

Turning to `Oc1ccc(Nc2nc(F)nc3[nH]cnc23)cc1` [Compound 49], in assay [1], the “Activity (%) [10^−5 mol · l^−1 K = 100%]” value is reported as 106%. Besides, the EC50 was above 50 µM at AHK3 and 37.1 µM on CRE1/AHK4.

For `COc1ccccc1Nc1nc(F)nc2[nH]cnc12` [Compound 50], the results for the “Activity (%) [10^−5 mol · l^−1 K = 100%]” value in assay [2] and in assay [1] were 105.2% and 117.6%, respectively. Also, the EC50 is 17.4 µM on AHK3 and above 50 µM on CRE1/AHK4.

The term IC50 denotes the concentration that inhibits the measured activity by half. Consider `Nc1nc(Nc2cccc(F)c2)c2nc[nH]c2n1` [Compound 69], for which the half-maximal inhibitory concentration (IC50) on recombinant AtCKX2 (setting [3]) came out at 29.4 µM. The “Activity (%) [10^−5 mol · l^−1 K = 100%]” value in assay [2] came out at 113.2%. For the same compound, the EC50 on AHK3 is above 50 µM.

For `Nc1nc(Nc2ccccc2O)c2[nH]cnc2n1` [Compound 71], the EC50 at AHK3 and on CRE1/AHK4 was above 50 µM throughout.

On to `COc1cccc(Nc2nc(N)nc3nc[nH]c23)c1` [Compound 75, 2-Amino-6-(3-methoxyanilino)purine], for which, on recombinant AtCKX2 (setting [3]), the IC50 came to 24.7 µM. In addition, in assay [2], the “Activity (%) [10^−5 mol · l^−1 K = 100%]” value is listed as 123.6%. Moreover, the EC50 on AHK3 amounted to 20.4 µM.

As to `Sc1nc(Nc2cccc(Cl)c2)c2nc[nH]c2n1` [Compound 80], at recombinant AtCKX2 (setting [3]), the IC50 was 28.4 µM. Further, the “Activity (%) [10^−5 mol · l^−1 K = 100%]” value in assay [2] was 106%; in assay [1], 126%. For the same compound, the concentration giving a half-maximal response (EC50) on AHK3 amounted to 42 µM.

In the case of `COc1cccc(Nc2nc(S)nc3[nH]cnc23)c1` [Compound 88], the IC50 on recombinant AtCKX2 (setting [3]) was determined as 28.3 µM. The “Activity (%) [10^−5 mol · l^−1 K = 100%]” value in assay [2] is on record as 113.4%; in assay [1], 103.4%. This compound registered a half-maximal effective concentration (EC50) on AHK3 of 31.7 µM.

Take `CSc1nc(Nc2cccc(Cl)c2)c2nc[nH]c2n1` [Compound 96]: the entries for the “Activity (%) [10^−5 mol · l^−1 K = 100%]” value in assay [2] and in assay [1] were 145.8% and 121.2%, respectively. The concentration giving a half-maximal response (EC50) at AHK3 was 29 µM; on CRE1/AHK4, 41 µM.

Take `CSc1nc(Nc2cccc(F)c2)c2nc[nH]c2n1` [Compound 98]: the entries for the “Activity (%) [10^−5 mol · l^−1 K = 100%]” value in assay [2] and in assay [1] were 142.5% and 130.3%, respectively. Also, the values for the EC50 on AHK3 and on CRE1/AHK4 were 32 µM and 49 µM, respectively.

`Cc1nc(Nc2cccc(Cl)c2)c2nc[nH]c2n1` [Compound 111]: the 50% inhibitory concentration (IC50) on recombinant AtCKX2 (setting [3]) amounted to 15.7 µM. For the same compound, the “Activity (%) [10^−5 mol · l^−1 K = 100%]” value in assay [1] is listed as 128.3%. On AHK3, this compound returned a concentration giving a half-maximal response (EC50) above 50 µM.

With `Cc1nc(Nc2cccc(F)c2)c2nc[nH]c2n1` [Compound 113], on recombinant AtCKX2 (setting [3]), the concentration for half-maximal inhibition (IC50) stood at 21.8 µM. Besides, the “Activity (%) [10^−5 mol · l^−1 K = 100%]” value in assay [2] was found to be 120.2%; in assay [1] it was 125.3%.

As to `COc1cccc(Nc2nc(C)nc3nc[nH]c23)c1` [Compound 118, 2-Methyl-6-(3-methoxyanilino)purine], the half-maximal inhibitory concentration (IC50) on recombinant AtCKX2 (setting [3]) came to 9.4 µM. Further, the “Activity (%) [10^−5 mol · l^−1 K = 100%]” value was 144.2% in assay [2] and 105.7% in assay [1]. Besides, the EC50 on AHK3 was above 50 µM.

In the case of `O=C(Nc1ccccc1)Nc1cnns1` [thidiazuron, reference compound], the half-inhibitory concentration (IC50) on recombinant AtCKX2 was found to be 30 µM.
